Assays:
[1] = tested on: Malassezia furfur CBS 7019; assay: Microtitre plate cross-assay, Fractional Inhibitory Concentration (FIC) with conventional anti-dandruff/anti-fungal agents; format: cell-based; conditions: M. furfur CBS 7019; for FIC interpretation with Octopirox / FIC values with Octopirox: combination with Octopirox; for FIC values with Octopirox / FIC values with climbazole / FIC values with zinc pyrithione (ZnPTO): triplicate; for FIC interpretation with climbazole / FIC values with climbazole: combination with climbazole; for FIC interpretation with zinc pyrithione (ZnPTO) / FIC values with zinc pyrithione (ZnPTO): combination with zinc pyrithione (ZnPTO)
Experimental: FIC values are for activity against M.furfur, such as CBS 7019, and are calculated in ways well-known in the art.
(§1) Studies into anti-microbial action were performed using a microtitre plate cross-assay in triplicate against the type strain Malassezia furfur CBS 7019. The Fractional Inhibitory Concentration (FIC), the concentration of biocide in a mixture of biocides that inhibits growth, was determined for natural oils and a number of terpenoid components with the conventional anti-dandruff/anti-fungal agents.
The definition of synergy is a combination of biocides in which the effect is greater than the sum of the expected effects of the individual components.

[2] = tested on: Malassezia furfur CBS 7019; assay: MIC of oils and their components, microtitre plate assay; format: cell-based; conditions: substance alone
Experimental: as §1

Row | Compound | FIC interpretation with Octopirox [1] | FIC values with Octopirox [1] | FIC interpretation with climbazole [1] | FIC values with climbazole [1] | FIC interpretation with zinc pyrithione (ZnPTO) [1] | FIC values with zinc pyrithione (ZnPTO) [1] | MIC values for oils and their components [2]
1 | C=CCc1ccc(OC)cc1 [4-allylanisole] | antagonistic (>1 antagonistic) | 2 | antagonistic (>1 antagonistic) | 2 | synergy (<1 synergy) | 0.725 | 0.25%
2 | C=C1C2CCC(C2)C1(C)C (centres unmarked) [Camphene] | – | – | – | – | – | – | >8%
3 | CC12CCC(CC1)C(C)(C)O2 [Cineole] | – | – | – | – | – | – | 1%
4 | C=CCc1ccc(O)c(OC)c1 [Eugenol, eugenol] | synergy (<1 synergy) | 0.567 | synergy (<1 synergy) | 0.56 | synergy (<1 synergy) | 0.625 | 0.01%
5 | C=C(C)[C@H]1CC=C(C)CC1 [Limonene] | antagonistic (>1 antagonistic) | 2 | antagonistic (>1 antagonistic) | 2 | antagonistic (>1 antagonistic) | 1.5 | >8%
6 | C=CC(C)(O)CCC=C(C)C (centres unmarked) [Linalool, linalool] | antagonistic (>1 antagonistic) | 2 | – | 0.417 | synergy (<1 synergy) | 0.625 | 0.01%
7 | CC1=CCC(O)(C(C)C)CC1 (centres unmarked) [terpinen-4-ol] | antagonistic (>1 antagonistic) | 2 | – | 0.37 | synergy (<1 synergy) | 0.83 | –
8 | CC1=CCC2CC1C2(C)C (stereo not drawn) [α-pinene] | antagonistic (>1 antagonistic) | 2 | antagonistic (>1 antagonistic) | 2 | antagonistic (>1 antagonistic) | 1.42 | 0.3%
9 | CC1=CCC(C(C)(C)O)CC1 (stereo not drawn) [α-terpineol, alpha-terpineol] | – | 2 | synergy (<1 synergy) | 0.625 | antagonistic (>1 antagonistic) | 2 | 0.02%

— patent publication US20060013796A1, “Hair and/or scalp treatment composition” (priority 2002, published 2006)
